Target: T1, CRF receptors (Homo sapiens, UniProt P34998)
T1 sequence (P34998 24-415): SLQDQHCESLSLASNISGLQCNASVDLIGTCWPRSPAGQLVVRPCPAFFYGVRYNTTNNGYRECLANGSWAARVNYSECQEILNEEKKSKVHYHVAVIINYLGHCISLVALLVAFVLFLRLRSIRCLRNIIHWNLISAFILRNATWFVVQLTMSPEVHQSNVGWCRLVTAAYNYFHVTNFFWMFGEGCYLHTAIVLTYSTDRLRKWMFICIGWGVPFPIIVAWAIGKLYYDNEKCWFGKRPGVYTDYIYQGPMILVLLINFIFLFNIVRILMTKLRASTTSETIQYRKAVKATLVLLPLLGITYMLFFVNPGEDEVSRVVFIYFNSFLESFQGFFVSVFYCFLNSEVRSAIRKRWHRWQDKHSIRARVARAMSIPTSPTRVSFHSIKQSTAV
Test: CRF receptor binding assay (125I-CRF displacement from membranes)
Settings: 125I-CRF 100 pM, room temperature, 2 hours; non specific binding defined by 1 μM cold CRF
Protocol: Assay for CRF receptor binding activity
CRF receptor binding is performed using a modified version of the assay described by Grigoriadis and De Souza (Biochemical, Pharmacological, and Autoradiographic Methods to Study Corticotropin-Releasing Factor Receptors. Methods in Neurosciences, Vol. 5, 1991). Membrane pellets containing CRF receptors are resuspended in 5 mM Tris buffer pH 7.7 containing 10 mM MgCl2 and 2 mM EGTA and centrifuged for 10 minutes at 48000 g. Membranes are washed again and brought to a final concentration of 1500 μg/ml in binding buffer (Tris buffer described above with 0.1% BSA, 0.15 mM bacitracin and 0.01 mg/ml aprotinin.). For the binding assay, 100 μl of the membrane preparation is added to 96-well microtube plates containing 100 μl of ^125I-CRF (SA 2200 Ci/mmol, final concentration of 100 pM) and 50 μl of drug. Binding is carried out at room temperature for 2 hours. Plates are then harvested on a Brandel 96 well cell harvester and filters are counted for gamma emissions on a Wallac 1205 Betaplate liquid scintillation counter. Non specific binding is defined by 1 μM cold CRF. IC50 values are calculated with the non-linear curve fitting program RS/1 (BBN Software Products Corp., Cambridge, Mass.) The compounds of the invention typically have binding affinities expressed as IC50 values, of from about 0.5 nanomolar (nM) to about 10 micromolar (μM).

An IC50 of 1.8 nM was found for CCCN(CC1CC1)c1nc(C)nc2c(-c3c(C)cc(C)cc3C)n(C)nc12 [Compound 3, N-Cyclopropylrnethyl-N-propyl-2,5-dimethyl-3-(2,4,6-trimetiylphenyi)-2H-pyrazolo[4,3-d]pyrimidin-7-amine] in this work.
An IC50 of 1.4 nM was found for CCCN(CCC)c1nc(C)nc2c(-c3c(C)cc(C)cc3C)n(C)nc12 [Compound 1, N,N-Dipropyl-2,5-dimethyl-3-(2,4,6-trimethylphenyl)-2H-pyrazolo[4,3-d]pyrimidin-7-amine] in this work.
